Test results published in ChEMBL document CHEMBL4507278 (2021).

How the values were obtained:
[1] = test system: Tyrosine-protein kinase ABL1 (Homo sapiens), P00519 [E255K]; details: Compound concentration 1000.0 nM
[2] = molecular target: Atypical kinase COQ8B, mitochondrial (Homo sapiens) (UniProt Q96D53); details: Compound concentration 1000.0 nM
[3] = test system: ALK tyrosine kinase receptor (Homo sapiens), Q9UM73 [C1156Y]; details: Compound concentration 1000.0 nM
[4] = molecular target: Aurora kinase A (Homo sapiens) (UniProt O14965); details: Compound concentration 1000.0 nM
[5] = molecular target: Bone morphogenetic protein receptor type-1B (Homo sapiens) (UniProt O00238); details: Compound concentration 1000.0 nM
[6] = molecular target: Cyclin-dependent kinase 11A (Homo sapiens) (UniProt Q9UQ88); details: Compound concentration 1000.0 nM
[7] = molecular target: Cyclin-dependent kinase-like 5 (Homo sapiens) (UniProt O76039); details: Compound concentration 1000.0 nM
[8] = molecular target: Macrophage colony-stimulating factor 1 receptor (Homo sapiens) (UniProt P07333); details: Compound concentration 1000.0 nM
[9] = molecular target: Casein kinase I isoform gamma-2 (Homo sapiens) (UniProt P78368); details: Compound concentration 1000.0 nM
[10] = molecular target: Death-associated protein kinase 1 (Homo sapiens) (UniProt P53355); details: Compound concentration 1000.0 nM
[11] = test system: Epidermal growth factor receptor (Homo sapiens), P00533 [T790M]; details: Compound concentration 1000.0 nM
[12] = molecular target: Ephrin type-A receptor 3 (Homo sapiens) (UniProt P29320); details: Compound concentration 1000.0 nM
[13] = molecular target: Ephrin type-B receptor 6 (Homo sapiens) (UniProt O15197); details: Compound concentration 1000.0 nM
[14] = test system: Receptor-type tyrosine-protein kinase FLT3 (Homo sapiens), P36888 [D835H]; details: Compound concentration 1000.0 nM
[15] = test system: Receptor-type tyrosine-protein kinase FLT3 (Homo sapiens), P36888 [UNDEFINED MUTATION]; details: Compound concentration 1000.0 nM
[16] = test system: Receptor-type tyrosine-protein kinase FLT3 (Homo sapiens), P36888 [R834Q]; details: Compound concentration 1000.0 nM
[17] = molecular target: Homeodomain-interacting protein kinase 2 (Homo sapiens) (UniProt Q9H2X6); details: Compound concentration 1000.0 nM
[18] = molecular target: Homeodomain-interacting protein kinase 3 (Homo sapiens) (UniProt Q9H422); details: Compound concentration 1000.0 nM
Sequence of Homeodomain-interacting protein kinase 3 (Homo sapiens) (Q9H422 whole entry, looked up): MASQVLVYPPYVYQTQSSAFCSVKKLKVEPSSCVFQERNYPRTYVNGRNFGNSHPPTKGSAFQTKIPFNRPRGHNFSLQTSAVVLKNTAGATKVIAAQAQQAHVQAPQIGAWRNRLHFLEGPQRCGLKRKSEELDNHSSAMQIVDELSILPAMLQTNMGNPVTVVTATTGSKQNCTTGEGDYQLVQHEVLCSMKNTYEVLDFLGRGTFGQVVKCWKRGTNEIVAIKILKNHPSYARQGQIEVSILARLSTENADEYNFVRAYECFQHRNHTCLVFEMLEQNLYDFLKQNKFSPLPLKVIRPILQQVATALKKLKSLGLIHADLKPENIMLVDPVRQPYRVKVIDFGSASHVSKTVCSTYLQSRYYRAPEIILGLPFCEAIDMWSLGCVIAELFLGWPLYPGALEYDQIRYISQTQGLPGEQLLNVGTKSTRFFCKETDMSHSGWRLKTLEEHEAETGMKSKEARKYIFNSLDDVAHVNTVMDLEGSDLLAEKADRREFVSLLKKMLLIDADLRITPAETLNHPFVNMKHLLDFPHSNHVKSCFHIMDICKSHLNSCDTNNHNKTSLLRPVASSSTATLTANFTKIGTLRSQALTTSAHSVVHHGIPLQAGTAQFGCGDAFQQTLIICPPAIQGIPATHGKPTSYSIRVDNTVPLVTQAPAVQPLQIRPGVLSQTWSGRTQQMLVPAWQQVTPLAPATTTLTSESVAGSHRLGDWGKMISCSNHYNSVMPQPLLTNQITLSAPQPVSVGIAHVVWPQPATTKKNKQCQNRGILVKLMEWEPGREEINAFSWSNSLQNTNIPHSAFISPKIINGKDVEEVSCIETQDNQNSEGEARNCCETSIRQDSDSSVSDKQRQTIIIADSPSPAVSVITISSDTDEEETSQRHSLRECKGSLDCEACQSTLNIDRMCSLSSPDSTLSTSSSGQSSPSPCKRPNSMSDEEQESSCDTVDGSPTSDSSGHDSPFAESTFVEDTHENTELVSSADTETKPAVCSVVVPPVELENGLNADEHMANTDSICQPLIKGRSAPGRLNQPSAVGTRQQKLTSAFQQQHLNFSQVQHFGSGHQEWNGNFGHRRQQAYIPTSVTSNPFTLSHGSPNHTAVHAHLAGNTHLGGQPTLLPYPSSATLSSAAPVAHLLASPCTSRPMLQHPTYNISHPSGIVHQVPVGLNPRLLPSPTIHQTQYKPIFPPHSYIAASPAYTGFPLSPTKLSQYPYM

[19] = molecular target: Mitogen-activated protein kinase kinase kinase kinase 1 (Homo sapiens) (UniProt Q92918); details: Compound concentration 1000.0 nM
[20] = molecular target: Mitogen-activated protein kinase 9 (Homo sapiens) (UniProt P45984); details: Compound concentration 1000.0 nM
Sequence of Mitogen-activated protein kinase 9 (Homo sapiens) (P45984 whole entry, looked up): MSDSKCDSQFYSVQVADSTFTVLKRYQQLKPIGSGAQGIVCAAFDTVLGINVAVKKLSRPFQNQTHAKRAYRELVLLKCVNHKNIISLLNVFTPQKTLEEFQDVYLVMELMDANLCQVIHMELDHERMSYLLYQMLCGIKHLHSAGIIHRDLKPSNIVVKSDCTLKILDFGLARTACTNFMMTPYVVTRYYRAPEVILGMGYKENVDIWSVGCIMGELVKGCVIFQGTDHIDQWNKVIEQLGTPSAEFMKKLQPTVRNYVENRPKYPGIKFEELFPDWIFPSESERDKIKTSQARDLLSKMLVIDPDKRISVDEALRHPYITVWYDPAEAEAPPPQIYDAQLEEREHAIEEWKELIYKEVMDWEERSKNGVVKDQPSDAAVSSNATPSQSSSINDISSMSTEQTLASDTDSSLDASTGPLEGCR

[21] = test system: Mast/stem cell growth factor receptor Kit (Homo sapiens), P10721 [A829P]; details: Compound concentration 1000.0 nM
[22] = molecular target: Serine/threonine-protein kinase LATS2 (Homo sapiens) (UniProt Q9NRM7); details: Compound concentration 1000.0 nM
[23] = molecular target: Serine/threonine-protein kinase STK11 (Homo sapiens) (UniProt Q15831); details: Compound concentration 1000.0 nM
[24] = molecular target: Mitogen-activated protein kinase kinase kinase 1 (Homo sapiens) (UniProt Q13233); details: Compound concentration 1000.0 nM
[25] = molecular target: Dual specificity mitogen-activated protein kinase kinase 5 (Homo sapiens) (UniProt Q13163); details: Compound concentration 1000.0 nM
[26] = molecular target: Myosin light chain kinase 2, skeletal/cardiac muscle (Homo sapiens) (UniProt Q9H1R3); details: Compound concentration 1000.0 nM
Sequence of Myosin light chain kinase 2, skeletal/cardiac muscle (Homo sapiens) (Q9H1R3 whole entry): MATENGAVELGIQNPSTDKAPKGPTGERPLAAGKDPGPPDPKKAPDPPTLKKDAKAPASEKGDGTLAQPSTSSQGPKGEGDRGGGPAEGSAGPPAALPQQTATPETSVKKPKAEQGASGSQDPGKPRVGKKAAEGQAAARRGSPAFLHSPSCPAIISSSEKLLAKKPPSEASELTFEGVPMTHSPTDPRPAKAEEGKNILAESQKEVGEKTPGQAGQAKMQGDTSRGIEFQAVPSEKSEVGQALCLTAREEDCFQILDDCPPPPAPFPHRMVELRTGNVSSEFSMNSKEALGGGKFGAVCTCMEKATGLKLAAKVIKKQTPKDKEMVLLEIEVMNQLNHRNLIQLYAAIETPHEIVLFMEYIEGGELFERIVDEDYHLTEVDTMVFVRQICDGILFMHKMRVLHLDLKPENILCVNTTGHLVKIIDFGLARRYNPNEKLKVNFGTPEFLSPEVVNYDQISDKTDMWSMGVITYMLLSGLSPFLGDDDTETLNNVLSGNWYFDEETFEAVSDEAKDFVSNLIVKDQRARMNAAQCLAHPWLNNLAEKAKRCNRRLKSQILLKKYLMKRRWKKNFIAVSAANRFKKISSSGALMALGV

[27] = molecular target: Serine/threonine-protein kinase NIM1 (Homo sapiens) (UniProt Q8IY84); details: Compound concentration 1000.0 nM
[28] = molecular target: Mitogen-activated protein kinase 14 (Homo sapiens) (UniProt Q16539); details: Compound concentration 1000.0 nM
[29] = molecular target: Serine/threonine-protein kinase PAK 5 (Homo sapiens) (UniProt Q9P286); details: Compound concentration 1000.0 nM
[30] = molecular target: RAF proto-oncogene serine/threonine-protein kinase (Homo sapiens) (UniProt P04049); details: Compound concentration 1000.0 nM
[31] = test system: Proto-oncogene tyrosine-protein kinase receptor Ret (Homo sapiens), P07949 [M918T]; details: Compound concentration 1000.0 nM
Sequence of Proto-oncogene tyrosine-protein kinase receptor Ret (Homo sapiens), P07949 [M918T] (P07949 whole entry M918T): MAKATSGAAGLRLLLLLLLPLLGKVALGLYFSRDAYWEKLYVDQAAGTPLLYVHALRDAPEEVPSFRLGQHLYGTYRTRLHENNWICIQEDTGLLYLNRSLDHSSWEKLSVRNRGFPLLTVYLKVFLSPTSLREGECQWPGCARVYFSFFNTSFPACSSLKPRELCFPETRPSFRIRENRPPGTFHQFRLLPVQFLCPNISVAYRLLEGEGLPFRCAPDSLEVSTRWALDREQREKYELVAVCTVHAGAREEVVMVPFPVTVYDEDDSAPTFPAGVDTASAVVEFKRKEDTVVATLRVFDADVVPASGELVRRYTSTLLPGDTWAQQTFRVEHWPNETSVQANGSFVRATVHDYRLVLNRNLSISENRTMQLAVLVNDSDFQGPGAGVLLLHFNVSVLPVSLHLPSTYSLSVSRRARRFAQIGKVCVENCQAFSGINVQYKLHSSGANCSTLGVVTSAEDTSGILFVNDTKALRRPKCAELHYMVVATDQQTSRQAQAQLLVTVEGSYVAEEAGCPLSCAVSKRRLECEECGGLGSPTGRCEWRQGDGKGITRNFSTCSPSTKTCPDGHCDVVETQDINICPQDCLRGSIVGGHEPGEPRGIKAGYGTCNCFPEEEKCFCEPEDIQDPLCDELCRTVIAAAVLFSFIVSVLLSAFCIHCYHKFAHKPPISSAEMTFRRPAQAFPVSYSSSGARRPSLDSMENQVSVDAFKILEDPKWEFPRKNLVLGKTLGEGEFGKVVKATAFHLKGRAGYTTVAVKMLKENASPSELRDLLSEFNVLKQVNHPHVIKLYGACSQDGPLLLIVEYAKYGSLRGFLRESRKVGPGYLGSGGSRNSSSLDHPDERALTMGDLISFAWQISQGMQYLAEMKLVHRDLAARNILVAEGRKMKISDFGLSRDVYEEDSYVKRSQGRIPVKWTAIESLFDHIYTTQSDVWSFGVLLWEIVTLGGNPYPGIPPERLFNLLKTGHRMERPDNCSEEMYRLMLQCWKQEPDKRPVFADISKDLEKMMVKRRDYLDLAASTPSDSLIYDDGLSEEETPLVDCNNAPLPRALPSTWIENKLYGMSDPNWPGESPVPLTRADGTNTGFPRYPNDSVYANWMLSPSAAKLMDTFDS

[32] = molecular target: Serine/threonine-protein kinase RIO1 (Homo sapiens) (UniProt Q9BRS2); details: Compound concentration 1000.0 nM
[33] = molecular target: Ribosomal protein S6 kinase alpha-1 (Homo sapiens) (UniProt Q15418); details: Compound concentration 1000.0 nM
[34] = molecular target: Ribosomal protein S6 kinase alpha-6 (Homo sapiens) (UniProt Q9UK32); details: Compound concentration 1000.0 nM
Sequence of Ribosomal protein S6 kinase alpha-6 (Homo sapiens) (Q9UK32 whole entry): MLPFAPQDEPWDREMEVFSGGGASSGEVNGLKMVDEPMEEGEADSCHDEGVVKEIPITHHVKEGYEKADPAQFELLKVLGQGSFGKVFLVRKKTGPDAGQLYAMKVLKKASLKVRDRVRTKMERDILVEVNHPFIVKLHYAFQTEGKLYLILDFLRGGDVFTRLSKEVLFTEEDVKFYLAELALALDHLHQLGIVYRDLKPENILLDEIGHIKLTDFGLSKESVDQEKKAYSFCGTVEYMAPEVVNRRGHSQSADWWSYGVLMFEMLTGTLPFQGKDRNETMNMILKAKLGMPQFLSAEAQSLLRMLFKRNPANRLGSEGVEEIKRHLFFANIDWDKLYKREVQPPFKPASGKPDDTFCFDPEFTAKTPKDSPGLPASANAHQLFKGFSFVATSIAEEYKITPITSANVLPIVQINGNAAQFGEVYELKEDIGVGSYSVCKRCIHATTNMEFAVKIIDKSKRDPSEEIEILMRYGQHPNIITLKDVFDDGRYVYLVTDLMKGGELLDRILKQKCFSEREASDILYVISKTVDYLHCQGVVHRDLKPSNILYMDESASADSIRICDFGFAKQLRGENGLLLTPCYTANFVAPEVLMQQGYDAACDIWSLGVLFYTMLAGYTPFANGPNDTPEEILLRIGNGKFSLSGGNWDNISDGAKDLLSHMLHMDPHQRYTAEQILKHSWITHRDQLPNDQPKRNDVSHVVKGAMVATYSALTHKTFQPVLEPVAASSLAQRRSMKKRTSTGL

[35] = molecular target: Serine/threonine-protein kinase Sgk2 (Homo sapiens) (UniProt Q9HBY8); details: Compound concentration 1000.0 nM
Sequence of Serine/threonine-protein kinase Sgk2 (Homo sapiens) (Q9HBY8 whole entry): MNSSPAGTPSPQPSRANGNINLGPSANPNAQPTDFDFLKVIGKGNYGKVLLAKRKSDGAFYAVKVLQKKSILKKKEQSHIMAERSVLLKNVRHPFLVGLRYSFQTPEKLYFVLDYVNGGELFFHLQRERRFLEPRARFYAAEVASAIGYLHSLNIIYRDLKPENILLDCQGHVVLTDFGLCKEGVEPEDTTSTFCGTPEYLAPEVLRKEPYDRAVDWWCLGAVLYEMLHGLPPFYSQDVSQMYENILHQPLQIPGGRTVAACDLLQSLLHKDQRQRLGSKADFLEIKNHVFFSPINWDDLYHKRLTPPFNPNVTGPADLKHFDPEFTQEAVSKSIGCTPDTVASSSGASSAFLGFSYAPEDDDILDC

[36] = molecular target: SRSF protein kinase 1 (Homo sapiens) (UniProt Q96SB4); details: Compound concentration 1000.0 nM
[37] = molecular target: Non-receptor tyrosine-protein kinase TNK1 (Homo sapiens) (UniProt Q13470); details: Compound concentration 1000.0 nM
[38] = molecular target: Vascular endothelial growth factor receptor 2 (Homo sapiens) (UniProt P35968); details: Compound concentration 1000.0 nM
[39] = molecular target: Wee1-like protein kinase 2 (Homo sapiens) (UniProt P0C1S8); details: Compound concentration 1000.0 nM
[40] = molecular target: Serine/threonine-protein kinase WNK2 (Homo sapiens) (UniProt Q9Y3S1); details: Compound concentration 1000.0 nM
[41] = molecular target: Serine/threonine-protein kinase 32C (Homo sapiens) (UniProt Q86UX6); details: Compound concentration 1000.0 nM
[42] = molecular target: Sodium-dependent serotonin transporter (Homo sapiens) (UniProt P31645); details: Compound concentration 10.0 uM
[43] = molecular target: Kappa-type opioid receptor (Homo sapiens) (UniProt P41145); details: Compound concentration 10.0 uM
[44] = molecular target: Alpha-2C adrenergic receptor (Homo sapiens) (UniProt P18825); details: Compound concentration 10.0 uM
[45] = molecular target: Muscarinic acetylcholine receptor M5 (Homo sapiens) (UniProt P08912); details: Compound concentration 10.0 uM
Sequence of Muscarinic acetylcholine receptor M5 (Homo sapiens) (P08912 whole entry): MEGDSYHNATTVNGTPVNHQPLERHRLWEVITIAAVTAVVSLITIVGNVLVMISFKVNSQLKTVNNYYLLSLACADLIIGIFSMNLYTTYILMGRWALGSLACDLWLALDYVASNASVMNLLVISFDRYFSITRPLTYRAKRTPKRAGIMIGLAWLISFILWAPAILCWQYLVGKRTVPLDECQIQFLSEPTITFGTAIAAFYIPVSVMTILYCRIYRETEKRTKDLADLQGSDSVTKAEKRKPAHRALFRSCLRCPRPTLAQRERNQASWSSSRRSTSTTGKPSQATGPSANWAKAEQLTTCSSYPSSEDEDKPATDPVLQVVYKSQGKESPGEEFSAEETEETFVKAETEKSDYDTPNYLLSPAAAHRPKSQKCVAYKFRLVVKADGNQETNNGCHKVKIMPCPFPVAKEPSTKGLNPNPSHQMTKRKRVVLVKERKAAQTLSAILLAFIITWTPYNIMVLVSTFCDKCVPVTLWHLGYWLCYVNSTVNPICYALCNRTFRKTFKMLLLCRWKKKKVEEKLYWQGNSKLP

CS(=O)(=O)NCC[C@H](NC(=O)c1cncc2c1cnn2-c1ccc(F)cc1)c1ccnc(S(C)(=O)=O)c1 [BI 9307]
inactive: residual activity [1] 93% | residual activity [2] 100% | residual activity [3] 100% | residual activity [4] 100% | residual activity [5] 100% | residual activity [6] 100% | residual activity [7] 100% | residual activity [8] 100% | residual activity [9] 89% | residual activity [10] 100% | residual activity [11] 90% | residual activity [12] 87% | residual activity [13] 100% | residual activity [14] 100% | residual activity [15] 99% | residual activity [16] 79% | residual activity [17] 100% | residual activity [18] 100% | residual activity [19] 95% | residual activity [20] 86% | residual activity [21] 83% | residual activity [22] 97% | residual activity [23] 100% | residual activity [24] 100% | residual activity [25] 92% | residual activity [26] 93% | residual activity [27] 100% | residual activity [28] 100% | residual activity [29] 99% | residual activity [30] 76% | residual activity [31] 100% | residual activity [32] 85% | residual activity [33] 100% | residual activity [34] 99% | residual activity [35] 94% | residual activity [36] 83% | residual activity [37] 100% | residual activity [38] 100% | residual activity [39] 100% | residual activity [40] 100% | residual activity [41] 100% | inhibition [42] -7.52% | inhibition [43] 0.74% | inhibition [44] -2.08% | inhibition [45] 5.99%

CS(=O)(=O)c1cc(C2(NC(=O)c3cncc4c3cnn4-c3ccc(F)cc3)CC2)ccn1 [BI 639667]
inactive: residual activity [1] 100% | residual activity [2] 100% | residual activity [3] 100% | residual activity [4] 89% | residual activity [5] 82% | residual activity [6] 99% | residual activity [7] 89% | residual activity [8] 100% | residual activity [9] 100% | residual activity [10] 83% | residual activity [11] 100% | residual activity [12] 90% | residual activity [13] 100% | residual activity [14] 100% | residual activity [15] 58% | residual activity [16] 75% | residual activity [17] 100% | residual activity [18] 85% | residual activity [19] 89% | residual activity [20] 100% | residual activity [21] 100% | residual activity [22] 100% | residual activity [23] 100% | residual activity [24] 100% | residual activity [25] 80% | residual activity [26] 100% | residual activity [27] 56% | residual activity [28] 100% | residual activity [29] 100% | residual activity [30] 100% | residual activity [31] 100% | residual activity [32] 80% | residual activity [33] 79% | residual activity [34] 97% | residual activity [35] 67% | residual activity [36] 100% | residual activity [37] 80% | residual activity [38] 77% | residual activity [39] 100% | residual activity [40] 75% | residual activity [41] 81% | inhibition [42] -2.94% | inhibition [43] 1.68% | inhibition [44] -6.8% | inhibition [45] 3.92%
